Data from patent publication US10760052B2, “Method of inhibiting tau phosphorylation” (priority 2012, dated 2020).

Tests used:
[1] = system: α7nAChR (Aβ42 binding); assay: FITC-Aβ42 binding to biotinylated α7nAChR-containing SK-N-MC cell fragments; design: species or system human; details: added simultaneously, 30° C., 30 minutes
[2] = target: T1, FLNA (Homo sapiens, UniProt P21333); assay: [3H]NLX competition binding to FLNA in A7 cell membranes; details: 0.5 nM [3H]NLX, N=4, read-out: IC50-L, inhibition of [3H]NLX binding
T1 construct: validate the use of that 5-mer peptide as a surrogate for the complete molecule in the assays carried out herein; host or cells: A7 cells
T1 sequence (P21333 whole entry): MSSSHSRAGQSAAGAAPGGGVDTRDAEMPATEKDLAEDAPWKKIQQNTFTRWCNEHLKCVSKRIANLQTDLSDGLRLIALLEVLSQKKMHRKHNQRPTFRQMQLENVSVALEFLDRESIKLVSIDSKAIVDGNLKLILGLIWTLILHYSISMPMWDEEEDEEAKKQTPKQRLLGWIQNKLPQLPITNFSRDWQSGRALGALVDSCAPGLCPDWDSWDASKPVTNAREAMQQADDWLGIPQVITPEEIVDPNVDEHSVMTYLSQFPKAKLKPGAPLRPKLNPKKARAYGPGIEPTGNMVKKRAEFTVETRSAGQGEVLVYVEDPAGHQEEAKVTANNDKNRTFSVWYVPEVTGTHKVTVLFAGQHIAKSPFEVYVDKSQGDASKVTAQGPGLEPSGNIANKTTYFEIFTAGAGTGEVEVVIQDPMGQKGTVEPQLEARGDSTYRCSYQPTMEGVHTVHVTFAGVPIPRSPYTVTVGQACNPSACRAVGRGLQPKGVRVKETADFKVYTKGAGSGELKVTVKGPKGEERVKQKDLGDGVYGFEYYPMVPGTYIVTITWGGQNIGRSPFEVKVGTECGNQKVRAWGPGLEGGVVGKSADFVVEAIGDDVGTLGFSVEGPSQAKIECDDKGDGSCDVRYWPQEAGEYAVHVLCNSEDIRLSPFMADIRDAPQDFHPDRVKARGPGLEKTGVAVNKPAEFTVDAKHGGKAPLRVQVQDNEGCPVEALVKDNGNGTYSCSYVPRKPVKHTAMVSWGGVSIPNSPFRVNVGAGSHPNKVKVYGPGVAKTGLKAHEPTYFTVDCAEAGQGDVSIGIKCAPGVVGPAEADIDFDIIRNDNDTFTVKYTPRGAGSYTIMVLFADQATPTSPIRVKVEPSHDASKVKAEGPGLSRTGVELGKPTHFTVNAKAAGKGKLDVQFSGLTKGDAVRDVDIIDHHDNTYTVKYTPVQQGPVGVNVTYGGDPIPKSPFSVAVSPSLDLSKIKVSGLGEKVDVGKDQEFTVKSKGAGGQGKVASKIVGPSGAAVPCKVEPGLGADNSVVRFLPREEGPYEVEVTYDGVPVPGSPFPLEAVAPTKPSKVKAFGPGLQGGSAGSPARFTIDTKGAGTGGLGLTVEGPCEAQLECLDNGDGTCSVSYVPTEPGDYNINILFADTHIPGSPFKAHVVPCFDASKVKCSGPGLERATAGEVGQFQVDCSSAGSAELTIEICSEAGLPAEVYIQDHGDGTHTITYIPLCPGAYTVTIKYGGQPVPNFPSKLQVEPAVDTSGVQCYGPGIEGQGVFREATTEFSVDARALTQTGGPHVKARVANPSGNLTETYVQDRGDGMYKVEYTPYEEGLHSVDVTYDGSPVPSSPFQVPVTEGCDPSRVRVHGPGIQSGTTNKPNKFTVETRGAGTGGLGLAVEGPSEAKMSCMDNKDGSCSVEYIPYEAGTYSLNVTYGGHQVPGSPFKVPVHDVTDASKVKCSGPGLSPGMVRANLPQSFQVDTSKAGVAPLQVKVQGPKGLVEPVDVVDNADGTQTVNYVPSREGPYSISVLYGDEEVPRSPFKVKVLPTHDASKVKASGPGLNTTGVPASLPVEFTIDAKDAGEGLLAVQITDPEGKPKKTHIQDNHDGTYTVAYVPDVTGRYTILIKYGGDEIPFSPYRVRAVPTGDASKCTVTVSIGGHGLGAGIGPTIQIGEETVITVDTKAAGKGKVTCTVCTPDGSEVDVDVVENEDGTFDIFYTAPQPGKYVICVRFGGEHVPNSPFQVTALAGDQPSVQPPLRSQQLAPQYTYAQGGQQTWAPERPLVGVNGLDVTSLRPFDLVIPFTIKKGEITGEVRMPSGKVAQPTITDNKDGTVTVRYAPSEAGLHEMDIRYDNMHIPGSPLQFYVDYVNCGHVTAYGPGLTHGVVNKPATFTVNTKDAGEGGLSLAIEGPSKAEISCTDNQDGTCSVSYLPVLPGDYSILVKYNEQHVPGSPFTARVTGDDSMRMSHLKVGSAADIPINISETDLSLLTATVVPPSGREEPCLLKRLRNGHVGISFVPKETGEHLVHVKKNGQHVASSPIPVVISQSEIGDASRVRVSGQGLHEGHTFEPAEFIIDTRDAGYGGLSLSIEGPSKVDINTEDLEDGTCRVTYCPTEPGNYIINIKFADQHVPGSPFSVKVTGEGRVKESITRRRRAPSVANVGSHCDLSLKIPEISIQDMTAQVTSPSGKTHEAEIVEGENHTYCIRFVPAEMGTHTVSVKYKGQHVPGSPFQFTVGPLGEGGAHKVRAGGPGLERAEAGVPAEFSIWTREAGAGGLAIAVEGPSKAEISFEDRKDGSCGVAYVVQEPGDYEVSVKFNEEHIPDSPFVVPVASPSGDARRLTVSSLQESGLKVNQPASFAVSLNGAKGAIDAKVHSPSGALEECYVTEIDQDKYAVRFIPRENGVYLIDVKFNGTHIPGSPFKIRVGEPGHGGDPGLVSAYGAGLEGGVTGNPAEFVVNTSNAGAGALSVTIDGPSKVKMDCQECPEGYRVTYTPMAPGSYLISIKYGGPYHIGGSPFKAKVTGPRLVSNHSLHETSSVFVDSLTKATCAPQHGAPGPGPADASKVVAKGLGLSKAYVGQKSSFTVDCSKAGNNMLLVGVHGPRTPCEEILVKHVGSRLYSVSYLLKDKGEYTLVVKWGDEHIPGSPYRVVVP

[3] = system: α7nAChR (Aβ42-α7nAChR interaction); assay: Aβ42 affinity for α7nAChR in biotinylated synaptic membranes from postmortem frontal cortices; assay type: binding, human
From the text: FIG. 27 in two panels illustrates that Compound C0105 reduces affinity of the Aβ42-α7nAChR interaction. […] Data are means±SEM. n=11 for postmortem control tissue; n=6 for SK-N-MC cells.

[4] = system: tau protein phosphorylated at S202, T231 and T181; assay: Aβ42-induced tau phosphorylation in rat frontal cortical synaptosomes; assay type: cell-based
Experimental: FIG. 4 in four panels as FIGS. 4A-4D, illustrates that FLNA-binding compounds reduce tau phosphorylation at all three phosphorylation sites. […] The three phosphoepitopes of tau were detected in immunoprecipitates using specific antibodies. […] Immunoprecipitates were determined by Western blotting (FIGS. 4A-4C) and quantified by densitometry (FIG. 4D).
(§1) FIG. 42, also in two panels, FIGS. 42A and 42B, illustrates that FLNA-binding compounds reduce tau phosphorylation at all three phosphorylation sites using the compounds and concentrations of FIG. 41 using immunoprecipitation and Western blotting. […] The three phosphoepitopes of tau were detected in immunoprecipitates using specific antibodies.
as §1, with “44,” for “42,”, “FIG. 44A” for “FIGS. 42A”, “FIG. 44B,” for “42B,”, “43” for “41”, “antibodies. Aβ42 strongly promotes tau phosphorylation at all three sites.” for “antibodies.”
as §1, with “46,” for “42,”, “FIG. 46A” for “FIGS. 42A”, “FIG. 46B,” for “42B,”, “45” for “41”, “antibodies. Aβ42 strongly promotes tau phosphorylation at all three sites.” for “antibodies.”
The three primary phosphorylation sites on tau protein were examined for their phosphorylation levels compared to total tau protein content. Tau, phosphorylated at these three sites, is a constituent of NFTs. Consistent with effects on FLNA-α7nAChR association, and ERK2 activation, all of the FLNA-binding compounds assayed, with 10 minute pre-incubation, decreased Aβ42-induced phosphorylation of tau at all three sites (FIG. 4).

[5] = target: T2, FLNA-α7nAChR/TLR4 and Aβ42-α7nAChR complexes (Homo sapiens, UniProt P21333); assay: FLNA-α7nAChR/TLR4 and Aβ42-α7nAChR associations in AD and Aβ42-treated control lymphocytes; assay type: cell-based; details: 1 nM, 30 minutes
T2 construct: endogenous in cells; host or cells: lymphocytes of AD patients and control subjects
Experimental: Because lymphocytes contain α7nAChR and TLR4, whether the associations of these receptors with FLNA are increased in the lymphocytes of AD patients and whether Compound C0105 treatment ex vivo could disrupt these associations were assessed. Also assayed was the effect of Compound C0105 on Aβ42-α7nAChR complexes in AD lymphocytes and Aβ42-treated lymphocytes from age-matched control subjects.

[6] = system: tau (pSer202, pThr231, pThr181); assay: Tau phosphorylation in organotypic frontocortical slice cultures; assay type: cell-based, rat; details: C0105 0.1, 1, 10 nM; C0114 1, 10 nM; simultaneous with Aβ42
Experimental: On the day of study, medium was removed, the brain slices rinsed and incubated in 0.1% FBS-containing medium for 4 hours at 36° C. in 5% CO2.
The levels of phosphorylated tau (pSer202tau, pThr231tau and pThr181tau) as well as total tau precipitated (loading controls) are assessed by Western blotting using specific antibodies directed against each of the phosphoepitopes and the anti-tau, respectively.

[7] = system: NMDAR; assay: Levels of signaling molecules associated with NMDAR (NR1) in slice cultures; assay type: cell-based, rat; details: 0.1 μM Aβ42
Experimental: NMDAR activation and signaling was initiated by incubation of 6 slices with either 0.3 mM Mg^2+ containing KR (LMKR; basal) or LMKR containing 10 μM NMDA and 1 μM glycine at 37° C. for 30 minutes.
Ligand stimulation was terminated by the addition of 1 ml of ice-cold Ca^2+-free K-R containing mixture of protein phosphatase inhibitors, 0.5 mM EGTA and 0.1 mM EDTA. Brain slices were harvested by a brief centrifugation and were homogenized in 0.25 ml of ice-cold immunoprecipitation buffer. The homogenates were centrifuged at 1000×g for 5 minutes (4° C.) and the supernatant (post-mitochondrial fraction) was sonicated for 10 seconds on ice.
(§2) The resultant lysates were cleared by centrifugation at 50,000×g for 5 minutes and diluted with 0.75 ml of immunoprecipitation buffer. Protein concentrations were measured by Bradford method (Bio-Rad).
To determine the association of NMDARs with PSD-95, as well as NMDAR signaling, the levels of NMDAR subunits, PSD-95 and NMDAR-associated signaling molecules were measured in anti-NR1 immunoprecipitates. In these studies, brain slice lysates (100 μg) were immunoprecipitated overnight at 4° C. with 2 μg of immobilized anti-NR1 onto covalently conjugated protein A-agarose beads (Pierce-ENDOGEN). […]

[8] = system: insulin receptor (IR); assay: IR activation and signaling (pY1150/1151 IRβ, IRS-1) in slice cultures; assay type: cell-based, rat; details: insulin stimulation
Experimental: IR activation and signaling was initiated by incubation of 6 slices that were further chopped horizontally into 100 μm (100 μm×200 μm×3 mm) with either KR (basal) or KR containing 1 nM insulin at 37° C. for 30 minutes. […] Ligand stimulation was terminated by the addition of 1 ml of ice-cold Ca^2+-free K-R containing mixture of protein phosphatase inhibitors, 0.5 mM EGTA and 0.1 mM EDTA. Brain slices were harvested by a brief centrifugation and were homogenized in 0.25 ml of ice-cold immunoprecipitation buffer. The homogenates were centrifuged at 1000×g for 5 minutes (4° C.) and the supernatant (post-mitochondrial fraction) was sonicated for 10 seconds on ice. […] The resultant lysates were then cleared by centrifugation at 50,000×g for 5 minutes and diluted with 0.75 ml of immunoprecipitation buffer. Protein concentrations were measured by Bradford method (Bio-Rad).
In these experiments, brain slice lysates (100 μg) were immunoprecipitated overnight (about 18 hours) at 4° C. with 2 μg of immobilized anti-IRβ onto covalently conjugated protein A-agarose beads (Pierce-ENDOGEN). […]

[9] = system: voltage-gated Ca2+ channel mediated Ca2+ influx; assay type: cell-based, rat; details: slice cultures
[10] = system: NFT and Aβ42 aggregates; assay: Immunohistochemistry of NFT and Aβ42 aggregates in slice cultures; assay type: cell-based, rat; details: slice cultures incubated with Aβ42
Experimental: For immunohistochemistry, additional slices were removed and fixed in 4% paraformaldehyde in PBS at 4° C.
One section was immunostained with anti-NFT or -PHF.
Specimens were examined using a Nikon FXA microscope with a Princeton Instruments CCD camera and recorded digitally.
The correlations between the amount of NFT/PHF immunoreactivity and Aβ42-positive material accumulated within mature neurons were also determined.

[11] = system: α7nAChR; details: mouse, in vivo
[12] = system: NMDAR; assay: ICV Aβ42 infusion mouse model: NMDAR signaling molecules; assay type: in vivo; details: 10 mg/kg twice daily
Experimental: NMDAR signaling and their interaction with synaptic anchoring protein, PSD-95 were compared in synaptosomes from treated mice. NMDAR activation and signaling was initiated by incubation of 6 slices with either 0.3 mM Mg^2+ containing KR (LMKR; basal) or LMKR containing 10 μM NMDA and 1 μM glycine at 37° C. for 30 minutes.
Ligand stimulation was terminated by the addition of 1 ml of ice-cold Ca^2+-free K-R containing mixture of protein phosphatase inhibitors, 0.5 mM EGTA and 0.1 mM EDTA. After harvesting, tissues were briefly centrifuged and homogenized in 0.25 ml of ice-cold immunoprecipitation buffer. The homogenates were centrifuged at 1000×g for 5 minutes (4° C.) and the supernatant (post-mitochondrial fraction) was sonicated for 10 seconds on ice.
as §2
To determine the NMDARs association with PSD-95 as well as NMDAR signaling, the levels of NMDAR subunits, PSD-95 and NMDAR-associated signaling molecules were measured in anti-NR1 immunoprecipitates. In these studies, brain tissue lysates (100 μg) were immunoprecipitated overnight (about 18 hours) at 4° C. with 2 μg of immobilized anti-NR1 onto covalently conjugated protein A-agarose beads (Pierce-ENDOGEN). […]

[13] = system: insulin receptor (IR); assay: ICV Aβ42 infusion mouse model: IR signaling; assay type: in vivo; details: 10 mg/kg twice daily
Experimental: IR activation and signaling was initiated by incubation of tissue with either K-R (basal) or K—R containing 1 nM insulin at 37° C. for 30 minutes. […] Ligand stimulation was terminated by the addition of 1 ml of ice-cold Ca^2+-free K-R containing mixture of protein phosphatase inhibitors, 0.5 mM EGTA and 0.1 mM EDTA.
Tissues were briefly centrifuged and homogenized in 0.25 ml of ice-cold immunoprecipitation buffer. The homogenates were centrifuged at 1000×g for 5 minutes (4° C.) and the supernatant (post-mitochondrial fraction) was sonicated for 10 seconds on ice. […] The resultant lysates were then cleared by centrifugation at 50,000×g for 5 minutes and diluted with 0.75 ml of immunoprecipitation buffer. Protein concentrations were measured by Bradford method (Bio-Rad).
In these studies, brain tissue lysates (100 μg) were immunoprecipitated overnight (about 18 hours) at 4° C. with 2 μg of immobilized anti-IRβ onto covalently conjugated protein A-agarose beads (Pierce-ENDOGEN).
Anti-IRβ immunoprecipitates were incubated with 75 μl antigen elution buffer (Pierce-ENDOGEN) and 2% SDS for 2 minutes on ice, centrifuged to remove antibody-protein A-agarose complexes and neutralized immediately with 10 μl 1.5 M Tris buffer, pH 8.8 followed by addition of 65 μl 2× PAGE sample buffer and boiled for 5 minutes. […]

CN1CCC2(CC1)NCC(=O)N2Cc1ccccc1 [Compound C0105] was tested, and the “Inhibition of FITC-Aβ42 binding” value ([1]; 0.1 nM compound) was 52.3±3.7%, the “Inhibition of FITC-Aβ42 binding” value ([1]; 1 nM compound) was 55.1±3.0% and the “Inhibition of FITC-Aβ42 binding” value ([1]; 10 nM compound) was 56.5±4.2%. For the same compound, the IC50 [2] was 0.226 nM, the “Reduction of affinity of the Aβ42-α7nAChR interaction” value ([3]; FIG. 27: postmortem tissue and SK-N-MC cells) was 1,000-10,000 fold and the “Reduction of Aβ42 binding affinity for α7nAChR” value ([3]; postmortem control tissue, biotinylated synaptic membranes, n=11) was 1000 fold. The Kd ([3]; read-out: Aβ42 binding affinity for α7nAChR after Compound C0105 incubation, postmortem control tissue) was 16 nM, the “Aβ42-induced tau phosphorylation at S202, T231 and T181” value ([4]; 1 or 10 nM compound, simultaneously or 10-minute pretreatment, Aβ42 0.1 μM) was “reduced this phosphorylation at both concentrations” and the “Aβ42-induced phosphorylation of tau” value ([4]; simultaneous administration) was “reduced tau phosphorylation with simultaneous administration”. The “FLNA associations with α7nAChR and TLR4 in lymphocytes” value [5] was “significantly reduced”, the Aβ42-induced tau phosphorylation [6] was “reduced tau phosphorylation at all three phosphorylation sites” and the “Levels of six signaling molecules associated with NR1 after NMDA and glycine” value [7] was “fully restored function”. The “Aβ42-induced IR signaling impairments (IRS-1 association, pY1150/1151 IRβ)” value [8] was “normalized the signaling impairments”, the “Aβ42-induced reduction of K+-evoked calcium influx” value [9] was “completely reversed by 1 and 10 nM” and the Aβ42 aggregates immunostaining [10] was “dramatically reduces”. The “NFT immunostaining (pTau)” value [10] was “dramatically reduces”, the “Aβ42-induced reduction in calcium influx after PNU282987” value [11] was “normalized” and the “Levels of NMDAR signaling molecules co-immunoprecipitating with NR-1” value [12] was “normalized”. For the same compound, the “IR signaling (IRβ phosphorylation, IRS-1 association)” value [13] was “restored”.
